These results are taken from US20160361288A1, “PHARMACEUTICAL COMPOSITIONS FOR PREVENTING OR TREATING DIABETIC N[…] ACTIVITY INHIBITOR OF TENC1” (POSTECH ACADEMY-INDUSTRY FOUNDATION, priority 2015, published 2016).

The target in one assay is T1, TENC1 (Homo sapiens, UniProt Q63HR2, P1246L).
T1 construct: made in house; host or cells: cells (type not specified)
T1 sequence (Q63HR2 1-1409 P1246L): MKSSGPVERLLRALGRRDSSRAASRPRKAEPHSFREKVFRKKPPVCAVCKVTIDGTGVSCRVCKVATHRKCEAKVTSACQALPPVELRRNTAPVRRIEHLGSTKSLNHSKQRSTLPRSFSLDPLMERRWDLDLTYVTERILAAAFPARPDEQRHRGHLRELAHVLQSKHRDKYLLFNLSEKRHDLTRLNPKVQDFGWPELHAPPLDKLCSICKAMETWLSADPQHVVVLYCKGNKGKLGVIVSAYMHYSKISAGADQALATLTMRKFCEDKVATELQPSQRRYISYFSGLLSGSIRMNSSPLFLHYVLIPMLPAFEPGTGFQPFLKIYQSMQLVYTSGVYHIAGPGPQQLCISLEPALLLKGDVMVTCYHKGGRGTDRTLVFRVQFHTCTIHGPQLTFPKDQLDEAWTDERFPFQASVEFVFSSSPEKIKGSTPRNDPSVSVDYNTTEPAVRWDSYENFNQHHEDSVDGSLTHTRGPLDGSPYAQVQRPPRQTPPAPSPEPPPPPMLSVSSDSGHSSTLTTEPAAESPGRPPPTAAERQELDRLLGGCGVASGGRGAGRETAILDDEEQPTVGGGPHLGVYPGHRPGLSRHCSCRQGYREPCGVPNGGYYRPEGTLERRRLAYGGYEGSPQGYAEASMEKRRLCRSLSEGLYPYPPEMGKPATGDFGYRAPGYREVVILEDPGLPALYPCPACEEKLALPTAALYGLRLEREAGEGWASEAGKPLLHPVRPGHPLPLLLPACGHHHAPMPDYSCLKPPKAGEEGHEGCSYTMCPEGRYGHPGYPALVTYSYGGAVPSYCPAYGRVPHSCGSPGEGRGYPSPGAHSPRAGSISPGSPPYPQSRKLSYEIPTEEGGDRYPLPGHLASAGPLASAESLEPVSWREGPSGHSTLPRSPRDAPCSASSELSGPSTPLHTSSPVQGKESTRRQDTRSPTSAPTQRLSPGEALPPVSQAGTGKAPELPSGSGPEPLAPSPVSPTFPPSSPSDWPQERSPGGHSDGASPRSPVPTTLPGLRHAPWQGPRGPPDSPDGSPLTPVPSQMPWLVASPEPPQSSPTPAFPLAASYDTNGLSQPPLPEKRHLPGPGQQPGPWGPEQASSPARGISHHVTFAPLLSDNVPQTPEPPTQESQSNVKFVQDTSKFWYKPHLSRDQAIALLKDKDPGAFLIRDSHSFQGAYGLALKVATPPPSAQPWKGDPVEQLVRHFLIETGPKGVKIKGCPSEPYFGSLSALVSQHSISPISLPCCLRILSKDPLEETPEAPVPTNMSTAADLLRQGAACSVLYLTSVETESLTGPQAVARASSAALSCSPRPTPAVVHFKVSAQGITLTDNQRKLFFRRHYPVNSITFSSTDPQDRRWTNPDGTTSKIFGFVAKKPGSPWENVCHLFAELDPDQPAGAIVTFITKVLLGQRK
Briefly: Malachite Green assay screening for TENC1 inhibitor (PTPase activity of TENC1). It counts as biochemical. To be noted: TENC1 protein isolated from cells, compared with control; FIG. 8. The protocol:
According to the above results, it was confirmed that TENC1 overexpressed in a high glucose environment known as a leading cause of diabetic nephropathy inhibits phosphorylation of nephrin caused by dephosphorylation, and induces hypertrophy of the podocyte cell line. For this reason, to inhibit the hypertrophy of the podocyte cell line, screening was performed through a Malachite Green assay for finding a TENC1 inhibitor.
TENC1 protein isolated from the cells and each of the natural product library candidate compounds were put together for a predetermined time, and the PTPase activity of TENC1 was measured. […] Here, as a positive control, a PTPase inhibitor, sodium vanadate (Na3VO4; NAV) was used. Since there were almost no molecules left in the test tube, the method has a higher probability of discovering a direct regulator, compared with a cellular-level screening method.

The next assay deals with mTORC1 signaling. In words: mTORC1 signaling (S6K phosphorylation) in kidney tissue of db/db mouse (western blotting). It counts as in vivo. To be noted: 300 mg/kg orally daily for 2 weeks, FIG. 13. As for the experimental part: (§1) An effect of DHTS, which is the representative material of the TENC1 inhibitors found through the screening described in Example 5, was identified using a diabetic nephropathy animal model. To this end, as a diabetic nephropathy animal model, a type II diabetic model, that is, a db/db mouse was used, and as a control, a db/m mouse was used. 10 week-old male db/m and db/db mice were divided into three groups including a group in which a vehicle was administered to a db/m mouse, a group in which a vehicle was administered to a db/db mouse, and a group in which 300 mg/kg of DHTS was administered to a db/db mouse for experiments, and the vehicle or drug was orally administered daily for 2 weeks according to each condition. As the vehicle, 1% carboxymethyl cellulose was used.
(§2) Further, to investigate whether the above result is obtained by inhibiting TENC1-induced nephrin dephosphorylation and increased mTORC1 signaling, immunoprecipitation and western blotting were performed with a kidney tissue sample extracted from a mouse.
A general note: Immunoblotting shows a protein as a band on a membrane.

The subject of a further assay is nephrin. Briefly: Nephrin phosphorylation in kidney tissue of db/db mouse (immunoprecipitation). It counts as in vivo. To be noted: 300 mg/kg orally daily for 2 weeks, FIG. 12. The protocol:
as §1, §2

For the next assay, the system named is differentiated podocyte. In words: Filtration function of differentiated podocyte under high glucose (protein quantification). It counts as cell-based. To be noted: high glucose condition of 30 mmol/L vs normal glucose 5 mmol/L; FIG. 11B.
Another assay relates to db/db mouse. Briefly: Diabetic nephropathy animal model, db/db mouse (fasting serum glucose, kidney weight, proteinuria). To be noted: 300 mg/kg orally daily for 2 weeks. The format is in vivo. As for the experimental part: as §1
First, after the experiment described above, blood was taken from a mouse to measure a fasting serum glucose level. As a result, referring to FIG. 9, it was confirmed that the fasting serum glucose level was not decreased by the administration of DHTS for two weeks.
Therefore, it was confirmed that DHTS can improve the renal hypertrophy.

For `Cc1cccc2c3c(ccc12)C1=C(C(=O)C3=O)[C@@H](C)CO1` [DHTS, (1R)-1,6-dimethyl-1,2-dihydronaphtho[1,2-g][1]benzofuran-10,11-dione], the “inhibitory effect on the PTPase activity of TENC1” value against TENC1 is recorded as “inhibitory effect”. For the same compound, in the assay with mTORC1 signaling, the “S6K phosphorylation (pS6K) in kidney tissue” value is reported as “effectively inhibited”. In the assay on nephrin, the “nephrin phosphorylation in kidney tissue” value is “recovered”. In addition, the “filtration function of the podocyte” value in the assay on differentiated podocyte is listed as “improved to a level similar to the result obtained under a the normal glucose condition”. Also, the “fasting serum glucose level” value with db/db mouse (FIG. 9) is on record as “not decreased”. Besides, the “proteinuria (albumin ELISA)” value with db/db mouse (compared with vehicle db/db mouse, FIG. 11A) was “significantly reduced”. In addition, in the assay on db/db mouse (vs vehicle db/db and db/m, FIG. 10), the “kidney weight (renal hypertrophy; ratio of kidney weight to body weight)” value was “such an increase was not shown”.
